US11850283B2, “Liponucleotide-based therapy for asthma” (priority 2017, dated 2023)
Entries after “also recorded” stand apart in the source; their conditions may differ. Marks after values point to notes of the source that are not given here.

How the values were obtained:
[1] = test system: mitochondria, influenza-infected mice; assay: Effect of influenza infection and CDP-CHO treatment on mitochondrial function; assay type: in vivo; conditions: day 6; 100 μg/mouse i.p., daily from 1-5 days post-infection
[2] = test system: mouse model of asthma (dust mite/ragweed/Aspergillus fumigatus [DRA] triple antigen exposure); assay: BALF cytokine and chemokine content by ELISA in DRA mouse model of asthma; assay type: in vivo, BALB/c mice; conditions: treatment days 1-14 i.p. daily, mean ± SEM
Experimental: (§1) To experimentally determine the efficacy of the liponucleotides (lipoNTs) CDP-choline (CDP-CHO), CDP-ethanolamine (CDP-ETH), and CDP-diacylglycerol 16:0/16:0 (CDP-DAG) as therapeutics in a mouse model of asthma (dust mite/ragweed/Aspergillus fumigatus [DRA] triple antigen exposure) (Chung S, et al. Oncotarget 2016 7:17532-17546).
(§2) To induce asthma, adult female BALB/c mice (n=4-5 per group) were sensitized with 50 μl alum+50 μl sterile saline containing dust mite allergen (5 μg/mouse)+ragweed allergen (5 μg/mouse)+Aspergillus allergen (5 μg/mouse) by i.p. injection on days 0 and 5. Mice were then challenged intranasally with dust mite allergen (8.3 μg/mouse)+ragweed allergen ([…])+Aspergillus allergen (8.3 μg/mouse) in 30 μl saline on days 12, 13, and 14, under isoflurane anesthesia. LipoNTs were administered daily by the intraperitoneal route in 50 μl sterile saline.
(§3) Data were collected 15 days after first exposure to DRA in terminal experiments.
BAL supernatant fluid was stored at −20° C. for subsequent measurement of cytokine and/or chemokine content by ELISA using commercially available kits in accordance with manufacturers' instructions.

[3] = test system: influenza A/WSN/33 (H1N1)-infected mice; assay: Effect of influenza infection and i.p. liponucleotide treatment on lung function; assay type: in vivo, mouse; conditions: for CST / HR (bpm) / RBASAL / SaO2 (%) / WET:DRY: day 6
From the text: SaO2 increased from approximately 85% to approximately 96%. This is equivalent to an increase in PaO2 from approximately 65 mmHg to approximately 85 mmHg. It is also equivalent to an increase in O2 carrying capacity of blood (CaO2) from approximately 88% to approximately 97% of normal. Patients with an SaO2 of 96% or a […] would not require additional treatment

[4] = test system: ATII cells from influenza A/WSN/33 (H1N1)-infected mice; assay: Effect of influenza infection and CDP-CHO treatment on ATII cell ultrastructure; assay type: in vivo, mouse
From the text: FIG. 14 is a group of three transmission electron micrographs showing effects of CDP-CHO treatment on ultrastructure of ATII cell lamellar bodies (composed of surfactant lipids and proteins). Relative to mock-infected controls, lamellar bodies in ATII cells from influenza A/WSN/33 (H1N1)-infected mice are smaller and have disordered lamellae.
FIG. 15 is a group of 3 transmission electron micrographs showing effects of influenza infection on ultrastructure of ATII cell mitochondria (Mi). Relative to mock-infected controls (left), Mi in ATII cells from A/WSN/33 (H1N1)-infected mice (center) are fewer in number, less electron dense, and have disordered membranes and cristae.

[5] = test system: mouse model of asthma (dust mite/ragweed/Aspergillus fumigatus [DRA] triple antigen exposure); assay: Airway hyperresponsiveness to methacholine (flexiVent) in DRA mouse model of asthma; assay type: in vivo, BALB/c mice
Experimental: as §1, §2, §3
Airway hyperresponsiveness (AHR) was measured by the forced-oscillation method using the SciReq flexiVent computer-controlled mechanical ventilator. […] Airway resistance at each methacholine dose was quantified by the single-compartment model. […]

influenza-infected mice = assay: Effect of influenza infection and CDP-CHO treatment on lung inflammation; assay type: in vivo; conditions: day 6; 100 μg/mouse i.p., daily from 1-5 days post-infection
[6] = test system: mouse model of asthma (dust mite/ragweed/Aspergillus fumigatus [DRA] triple antigen exposure); assay: BALF total and differential cell counts in DRA mouse model of asthma; assay type: in vivo, BALB/c mice
Experimental: as §1, §2, §3
Following flexiVent analysis, bronchoalveolar lavage was performed on all mice using 0.8 ml PBS. BALF total and differential cell counts (trypan-blue stained live cells and Giemsa-stained cytospins, respectively) were performed on cell pellets to assess inflammatory cell infiltrates. BALF eosinophil (EO), alveolar macrophage (AM), and neutrophil (PMN) counts were determined.

[7] = 100 μg/mouse i.p. on day 5 only
[8] = i.p. daily from 1-5 days post-infection, CDP-CHO 100 μg/mouse, CDP-DAG 10 μg/mouse
[9] = i.p. daily from 1-5 days post-infection, CDP-CHO and CDP-ETH 100 μg/mouse, CDP-DAG 10 μg/mouse
[10] = ATII cells of infected mice, result in words
[11] = day 6, 100 μg/mouse i.p., daily from 1-5 days post-infection
[12] = treatment days 1-14, result in words
[13] = treatment days 1-14 i.p. daily, day 15, mean ± SEM

C[N+](C)(C)CCO[P@TB16](=O)(O)O[P@TB16](=O)(O)OC[C@H]1O[C@@H](n2ccc(N)nc2=O)[C@H](O)[C@@H]1O [CDP-CHO, CDP-choline]
MITOCHONDRIAL MEMBRANE POTENTIAL (ψm; DilC1(5) MCF) [1]: 10.14 ± 2.3 | MIT[…] PRODUCTION [1]: 36.91 ± 6.82 | CCL-11 (pg/ml), also known as eotaxin-1 [2]: 18 ± 8 pg/mL | IL-5 [2]: 16 ± 5 pg/mL | IL-17 [2]: 5 ± 1 pg/mL | CST [3, 7]: 0.05 ± 0.006 | HR (bpm) [3, 7]: 550 ± 10 bpm | RBASAL [3, 7]: 1.63 ± 0.22 | SaO2 (%) [3, 7]: 92.9 ± 1.5 % | WET:DRY [3, 7]: 6.2 ± 0.2 | CST [3, 8]: 0.05 ± 0.002 | RBASAL [3, 8]: 1.96 ± 0.12 | HR (bpm) [3, 9]: 570 ± 10 bpm | SaO2 (%) [3, 9]: 93.5 ± 1.0 % | WET:DRY [3, 9]: 6.2 ± 0.4 | PaO2 ([3]; equivalent of the SaO2 increase, from approximately 65 mmHg): approximately 85 mmHg | O2 carrying capacity of blood (CaO2) ([3]; equivalent of the SaO2 increase, from approximately 88%): approximately 97 % of normal | SaO2 ([3]; infected mice, CDP-CHO treatment, increased from approximately 85%): approximately 96% | Effects of single dose treatment late in infection compared with daily treatment ([3]; infected mice, result in words): as good as those of daily treatment | cardiac function ([3]; infected mice, result in words): improved cardiac function | lung function ([3]; infected mice, result in words): better lung function | oxygenation ([3]; infected mice, result in words): improved oxygenation | pulmonary edema ([3]; infected mice, result in words): reduced pulmonary edema | ATII cell mitochondria (Mi) morphology (transmission electron micrographs) [4, 10]: more electron-dense and have more normal cristae; also recorded: display normal morphology | lamellar body morphology (transmission electron micrographs) [4, 10]: improves lamellar body morphology | ATII CELL AREA (μm^2) [4, 11]: 53.64 ± 5.63* μm^2 | LAMELLAR BODIES/CELL [4, 11]: 8.1 ± 1.16 | LAMELLAR BODY AREA (μm^2) [4, 11]: 0.41 ± 0.04* μm^2 | MITOCHONDRIAL/CELL [4, 11]: 14.5 ± 1.78 | MIT[…] (μm^2) [4, 11]: 0.34 ± 0.01* μm^2 | DRA-induced AHR [5, 12]: does not attenuate | RMAX (cmH2O · s/ml) ([5]; treatment days 1-14 i.p. daily, CDP-CHO, CDP-ETH 5 mg/kg, CDP-DAG 0.5 mg/kg, peak airway resistance at 50 mg/ml methacholine, day 15, mean ± SEM): 2.65 ± 0.06 cmH2O · s/ml | BALF ALVEOLAR MACS (×10^6/ml) (influenza-infected mice): 1.08 ± 0.21 ×10^6/ml | BALF NEUTROPHILS (×10^6/ml) (influenza-infected mice): 0.45 ± 0.07 ×10^6/ml | BALF PC (influenza-infected mice): 1.61 ± 0.45 | VIRAL TITER (log PFU/g) (influenza-infected mice): 5.32 ± 0.07 log PFU/g | anti-inflammatory effect (BALF leukocyte counts) [6, 12]: decreases BALF EO and AM counts | BALF AMs (×10^6) [6, 13]: 0.14 ± 0.03 ×10^6 | BALF EOs (×10^6) [6, 13]: 0.26 ± 0.03 ×10^6 | BALF PMNs (×10^6) [6, 13]: 0.1 ± 0.03 ×10^6

NCCO[P@SP3](=O)(O)O[P@SP3](=O)(O)OC[C@H]1O[C@@H](n2ccc(N)nc2=O)[C@H](O)[C@@H]1O [CDP-ETH, CDP-ethanolamine]
HR (bpm) [3, 9]: 540 ± 20 bpm | SaO2 (%) [3, 9]: 91.1 ± 1.5% | WET:DRY [3, 9]: 6.5 ± 0.4

CDP-diacylglycerol [CDP-DAG]
HR (bpm) [3, 9]: 600 ± 10 bpm | SaO2 (%) [3, 9]: 95.2 ± 1.6 % | WET:DRY [3, 9]: 5.8 ± 0.1
